Measured values taken from paper PMC2613833 (Bioorganic & medicinal chemistry, 2008).
Structures can show the parent of a compound that is named as a salt. Where two headings read alike, the source gives them in different places.

Tests used:
[1] = target: T1, estrogen receptor α (ERα) (Homo sapiens, UniProt P03372); assay: Luciferase reporter gene assay; assay type: cell-based; conditions: for IC50: HEC-1 cells, full-length ERα, 1 nM estradiol, 24 h
T1 sequence (P03372 1-595): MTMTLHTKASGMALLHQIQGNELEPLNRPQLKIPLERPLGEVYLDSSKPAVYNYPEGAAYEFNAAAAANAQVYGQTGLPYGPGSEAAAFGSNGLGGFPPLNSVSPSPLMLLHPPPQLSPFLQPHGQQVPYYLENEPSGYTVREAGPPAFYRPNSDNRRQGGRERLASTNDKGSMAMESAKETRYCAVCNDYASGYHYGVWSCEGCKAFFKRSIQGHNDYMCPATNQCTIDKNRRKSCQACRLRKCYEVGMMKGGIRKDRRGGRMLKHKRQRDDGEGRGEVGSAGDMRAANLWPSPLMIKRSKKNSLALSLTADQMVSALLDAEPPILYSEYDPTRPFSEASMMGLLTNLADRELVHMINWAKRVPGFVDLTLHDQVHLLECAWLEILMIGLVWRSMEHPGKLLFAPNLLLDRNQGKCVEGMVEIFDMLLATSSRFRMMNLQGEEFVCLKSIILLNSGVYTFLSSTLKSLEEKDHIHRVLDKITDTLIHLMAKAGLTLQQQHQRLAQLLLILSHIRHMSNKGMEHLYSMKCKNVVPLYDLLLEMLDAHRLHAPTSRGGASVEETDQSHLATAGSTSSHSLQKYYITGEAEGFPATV

[2] = target: T2, Gal4-SRC-1NRD / ERαDEF-VP16 (Homo sapiens, UniProt P03372); assay: Mammalian two hybrid; assay type: cell-based; conditions: read-out: IC50, CBI inhibition in the M2H assay; HEC-1 cells, 1 nM estradiol, 24 h
T2 sequence (P03372 264-595 limits assumed): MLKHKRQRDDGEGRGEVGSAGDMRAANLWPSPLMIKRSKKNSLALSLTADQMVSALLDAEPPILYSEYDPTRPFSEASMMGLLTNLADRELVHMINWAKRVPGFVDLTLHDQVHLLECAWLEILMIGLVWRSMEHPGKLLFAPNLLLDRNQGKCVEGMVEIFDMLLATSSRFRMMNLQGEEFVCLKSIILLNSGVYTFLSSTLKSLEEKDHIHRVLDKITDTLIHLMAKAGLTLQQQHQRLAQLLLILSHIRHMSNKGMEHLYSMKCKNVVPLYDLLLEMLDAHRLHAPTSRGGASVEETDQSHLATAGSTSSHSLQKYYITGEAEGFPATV

[3] = target: T3, recombinant estrogen receptor ligand binding domain / fluorescein-labeled SRC peptide (Homo sapiens, UniProt P03372); assay: Fluorescence polarization assay of ER/coactivator interaction; conditions: 1 μM estradiol, Figure 1
T3 sequence (P03372 311-547 limits assumed): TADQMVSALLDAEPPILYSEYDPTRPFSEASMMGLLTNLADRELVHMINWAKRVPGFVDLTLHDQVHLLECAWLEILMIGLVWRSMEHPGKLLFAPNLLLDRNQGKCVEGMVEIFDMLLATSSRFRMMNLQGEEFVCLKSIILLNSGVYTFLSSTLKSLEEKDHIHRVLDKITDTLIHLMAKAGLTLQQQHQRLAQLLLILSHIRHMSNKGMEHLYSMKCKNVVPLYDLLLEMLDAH

[4] = tested on: ER transactivation in human breast cancer MCF-7 cells; conditions: cited from earlier work
ER = conditions: read-out: IC50, CBI activity against ER; mammalian two-hybrid (M2H) assay; cited from earlier work
ERα = target: T4, ERα (Homo sapiens, UniProt P03372); assay: Covalent attachment test, ESI mass spectrometry of ER after incubation; conditions: 30 min at 4 °C in phosphate-buffered saline, dialysis overnight, low-res ESI
T4 sequence (P03372 1-595): T1 sequence (P03372 1-595)

[5] = IC50, CBI inhibition of reporter gene activity
[6] = read-out: IC50, CBI inhibition of reporter gene activity

IC50 [1, 5] [µM] | Compound | also measured
3.5 ± 1.1 | N=C(N)N/N=C/C1=C(Oc2ccccc2)c2ccccc2CC1 [compound 26, 1-Phenoxy-3,4-dihydronaphthalene-2-carboxaldehyde aminoguanylhydrazone HCl] | –
– | 3-Chloro-3-naphthalen-1-yl-propenal aminoguanylhydrazone HCl [compound 30] | IC50 [1, 6]: ≥ 50 µM; IC50 [2]: ≥ 50 µM
1.4 ± 0.4 | CC(/C=N/NC(=N)N)=C(/Cl)c1ccccc1 [compound 29, β-Chloro-α-methylcinnamaldehyde aminoguanylhydrazone HCl] | inhibition of ER/coactivator interaction [3]: Dose-dependent inhibition
– | N=C(N)N/N=C/C1=C(Cl)c2ccccc2CC1 [compound 1, 1-Chloro-3,4-dihydronaphthalene-2-carboxaldehyde aminoguanylhydrazone HCl] | inhibition of ER/coactivator interaction [3]: Dose-dependent inhibition; ER transactivation [4]: inhibited ER transactivation; IC50 (ER): 5.5 µM; change in molecular weight of ER (covalent attachment) (ERα): no change in molecular weight was observed
7.5 | N=C(N)N/N=C/c1cccc2ccccc12 [compound 31, 2-(1-Naphthalenylmethylene) hydrazinecarboximidamide HCl] | –
– | hydroxytamoxifen [reference compound] | increase in IC50 with a 100-fold higher estradiol concentration ([1]; reporter gene assay, 1 nM vs 100 nM estradiol, Figure 4b): 100 fold
– | 1-(1-Chloro-3,4-dihydro-naphthalen-2-yl)-ethanone aminoguanylhydrazone HCl [compound 33] | IC50 [1, 6]: ≥ 50 µM
12 | N=C(N)N/N=C/C1=C(C(F)(F)F)c2ccccc2CC1 [compound 27, 1-(1,1,1,-Trifluoromethyl)-3,4-dihydronaphthalene-2-carboxaldehyde aminoguanylhydrazone HCl] | –
3.3 ± 0.8 | N=C(N)N/N=C/C1=C(Cl)c2ccccc2CCC1 [compound 23, 9-Chloro-6,7-dihydro-5-benzocycloheptene-8-carboxaldehyde aminoguanylhydrazone HCl] | inhibition of ER/coactivator interaction [3]: Dose-dependent inhibition
1.2 ± 0.1 | Cc1cc(C)c2c(c1)C(Cl)=C(/C=N/NC(=N)N)CC2 [compound 20, 1-Chloro-5,7-dimethyl-3,4-dihydronaphthalene-2-carboxaldehyde aminoguanylhydrazone HCl] | –
7.8 ± 0.1 | N=C(N)N/N=C/C1=C(Br)c2ccccc2CC1 [compound 24, 1-Bromo-3,4-dihydronaphthalene-2-carboxaldehyde aminoguanylhydrazone HCl] | –
3.1 ± 0.8 | COC1=C(/C=N/NC(=N)N)CCc2ccccc21 [compound 25, 1-Methoxy-3,4-dihydronaphthalene-2-carboxaldehyde aminoguanylhydrazone HCl] | –
7.5 ± 0.5 | N=C(N)N/N=C/c1ccc2ccccc2c1 [compound 32, 2-(2-Naphthalenylmethylene)hydrazinecarboximidamide HCl] | –
1.5 | CC1CC(/C=N/NC(=N)N)=C(Cl)c2ccccc21 (centres unmarked) [compound 21, 1-Chloro-3-dihydro-4-methylnaphthalene-2-carboxaldehyde aminoguanylhydrazone HCl] | –
